Measurements published in US10072005B2, “4-azaindole derivatives” (EISAI R&D MANAGEMENT CO., LTD., priority 2013, dated 2018).

molecular target: mAChR M1 (Homo sapiens, UniProt P11229); assay: In vitro cellular calcium flux assay, positive allosteric modulation of mAChR M1; format: cell-based; details: BHK cells expressing mAChR M1; EC20 carbachol; Examples 76-80 and 82-89 slightly modified procedure
Experimental: Baby hamster kidney cells stably expressing human or rat mAChR M1 to M5 were utilised for primary and selectivity profiling activities. mAChR M2 and M4 cell lines also stably expressed the chimeric Gαqi5 G-protein.
Human mAChR M1, M3, M5 and rat M1 cells were grown in low glucose Dulbecco's Modified Eagle's Medium (DMEM) medium plus heat inactivated 10% fetal bovine serum (HI FBS) and 500 μg/ml hygromycin B^1. Human mAChR M2 and M4 cells were maintained as above with^2 the addition of 500 μg/ml G418 to the media. Cells were maintained in culture at 37° C./5% CO2 and passaged twice weekly by treatment with 0.05% Trypsin/EDTA detachment solution, centrifugation (200 g, 5 min) and re-suspension in fresh media. Following cell expansion, cells were cryopreserved at −80° C. by treatment with 0.05% Trypsin/EDTA detachment solution, centrifugation (200 g, 5 min) and re-suspension of the pellet in freezing media (90% HI FBS/10% DMSO^3) at 15E6 cells/ml^4.
Prior to assaying, cells were prepared by thawing at 37° C. in a water bath, centrifugation (200 g, 5 min) and re-suspension of the pellet in fresh media. 15000 cells per well were seeded in black, clear bottomed 384-well Greiner Bio-One plates in plating medium (DMEM/10% HI FBS) and incubated overnight at 37 C/5% CO2.
On the day of the assay, media was removed from each well and replaced with 50 μl^5 assay buffer (HBSS with 20 mM HEPES and 2.5 mM Probenecid) containing the calcium indicator, Calcium 4 (Molecular Devices). Cells were then incubated at 37° C./5% CO2 for 30 min and at room temperature.
Compound preparation was carried out by generation of 11-point, 1 in 3 serial dilution concentration response curves in 100% DMSO. Compound was then diluted 1 in 65^6 with assay buffer (HBSS with 20 mM HEPES and 2.5 mM Probenecid) prior to the addition of 10 ul^7 to the cells using a Tetra fluorometric imaging plate reader (Molecular Devices)^8. Compound driven increases in intracellular calcium flux was measured as an increase in fluorescence (494Ex, 516Em)^9.
Positive allosteric modulator pEC50 values and antagonist pIC50 values for each compound were then determined. […] The points of modification and the alternate reagents, concentrations or equipment employed in these examples were: ^1200 μg/ml hygromycin B; ^2G418 not added; ^3CELLBANKER 1; ^410E6; ^5 40 μl; ^6 1 in 99; ^7 20 μl; ^8FDSS6000 (Hamamatsu Photonics); ^9(480Ex, 540Em); ^10Spotfire (TIBCO).

Chain of mAChR M1 (P11229 whole entry, looked up): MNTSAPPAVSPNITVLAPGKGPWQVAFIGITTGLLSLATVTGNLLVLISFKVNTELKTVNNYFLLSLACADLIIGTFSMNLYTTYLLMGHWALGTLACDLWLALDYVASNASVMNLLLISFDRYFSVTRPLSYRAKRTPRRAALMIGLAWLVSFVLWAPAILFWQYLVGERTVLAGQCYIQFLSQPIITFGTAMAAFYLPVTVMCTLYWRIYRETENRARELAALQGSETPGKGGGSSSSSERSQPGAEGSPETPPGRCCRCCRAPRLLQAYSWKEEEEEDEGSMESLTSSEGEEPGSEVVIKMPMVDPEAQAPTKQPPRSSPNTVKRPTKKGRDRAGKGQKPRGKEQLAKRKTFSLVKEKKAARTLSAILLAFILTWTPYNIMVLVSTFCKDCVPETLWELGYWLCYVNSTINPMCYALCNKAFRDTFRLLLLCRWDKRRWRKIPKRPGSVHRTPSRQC

Q: Which “pEC50 for positive allosteric modulation” value does the source give for `O=C(N[C@H]1CCCC[C@@H]1O)c1cn(Cc2ccc(OC(F)(F)F)cc2)c2c(Cl)ccnc12` [Example 99, 7-chloro-N-((1S,2S)-2-hydroxycyclohexyl)-1-(4-(trifluoromethoxy)benzyl)-1H-pyrrolo[3,2-b]pyridine-3-carboxamide] here?
A: 6.7

Q: For `Cc1ccc(Cn2cc(C(=O)N[C@H]3CCCC[C@@H]3O)c3nccc(Cl)c32)nc1` [Example 61, 7-Chloro-N-((1S,2S)-2-hydroxycyclohexyl)-1-((5-methylpyridin-2-yl)methyl)-1H-pyrrolo[3,2-b]pyridine-3-carboxamide], which “pEC50 for positive allosteric modulation” value is on record?
A: 7.0

Q: For `COc1ccc(Cn2cc(C(=O)N[C@H]3CCCC[C@@H]3O)c3nccc(C)c32)cc1C` [Example 66, N-((1S,2S)-2-Hydroxycyclohexyl)-1-(4-methoxy-3-methylbenzyl)-7-methyl-1H-pyrrolo[3,2-b]pyridine-3-carboxamide], which “pEC50 for positive allosteric modulation” value is on record?
A: 7.9

Q: Which “pEC50 for positive allosteric modulation” value does the source give for `O=C(N[C@H]1CCCC[C@@H]1O)c1cn(Cc2ccc(F)cc2F)c2cccnc12` [Example 24, 1-(2,4-Difluorobenzyl)-N-((1S,2S)-2-hydroxycyclohexyl)-1H-pyrrolo[3,2-b]pyridine-3-carboxamide] here?
A: 6.5

Q: For `Cc1cccc(Cn2cc(C(=O)N[C@H]3CCCC[C@@H]3O)c3nccc(Cl)c32)n1` [Example 16, 7-Chloro-N-((1S,2S)-2-hydroxycyclohexyl)-1-((6-methylpyridin-2-yl)methyl)-1H-pyrrolo[3,2-b]pyridine-3-carboxamide], which “pEC50 for positive allosteric modulation” value is on record?
A: 6.5

Q: `COc1ccnc2c(C(=O)N[C@H]3CCCC[C@@H]3O)cn(Cc3cccc(F)c3F)c12` [Example 104, 1-(2,3-difluorobenzyl)-N-((1S,2S)-2-hydroxycyclohexyl)-7-methoxy-1H-pyrrolo[3,2-b]pyridine-3-carboxamide] was tested. Which “pEC50 for positive allosteric modulation” value did it give?
A: 6.3

Q: For `O=C(N[C@H]1CCCNC1)c1cn(Cc2ccc(-n3cccn3)cc2)c2cccnc12` [Example 52, (S)-1-(4-(1H-Pyrazol-1-yl)benzyl)-N-(piperidin-3-yl)-1H-pyrrolo[3,2-b]pyridine-3-carboxamide], which “pEC50 for positive allosteric modulation” value is on record?
A: 6.7

Q: How did the “pEC50 for positive allosteric modulation” value turn out when `Cc1ccnc2c(C(=O)N[C@H]3CCCC[C@@H]3O)cn(Cc3cc(F)ccc3F)c12` [Example 98, 1-(2,5-difluorobenzyl)-N-((1S,2S)-2-hydroxycyclohexyl)-7-methyl-1H-pyrrolo[3,2-b]pyridine-3-carboxamide] was run?
A: 7.0

Q: `O=C(N[C@H]1CCCC[C@@H]1O)c1cn(Cc2ccc(F)cc2)c2c(Cl)ccnc12` [Example 14, 7-Chloro-1-(4-fluorobenzyl)-N-((1S,2S)-2-hydroxycyclohexyl)-1H-pyrrolo[3,2-b]pyridine-3-carboxamide] was tested. Which “pEC50 for positive allosteric modulation” value did it give?
A: 7.3

Q: `CN1CCC[C@@H](NC(=O)c2cn(Cc3ccc(-n4cccn4)cc3)c3cccnc23)C1` [Example 55, (R)-1-(4-(1H-Pyrazol-1-yl)benzyl)-N-(1-methylpiperidin-3-yl)-1H-pyrrolo[3,2-b]pyridine-3-carboxamide] was tested. Which “pEC50 for positive allosteric modulation” value did it give?
A: 6.7

Q: Which “pEC50 for positive allosteric modulation” value does the source give for `COc1cc(Cn2cc(C(=O)N[C@H]3CCCC[C@@H]3O)c3nccc(C)c32)ccn1` [Example 71, N-((1S,2S)-2-Hydroxycyclohexyl)-1-((2-methoxypyridin-4-yl)methyl)-7-methyl-1H-pyrrolo[3,2-b]pyridine-3-carboxamide] here?
A: 7.9

Q: How did the “pEC50 for positive allosteric modulation” value turn out when `Cc1nc(Cn2cc(C(=O)N[C@H]3CCCC[C@@H]3O)c3ncccc32)cs1` [Example 7, N-((1S,2S)-2-Hydroxycyclohexyl)-1-((2-methylthiazol-4-yl)methyl)-1H-pyrrolo[3,2-b]pyridine-3-carboxamide] was run?
A: 5.9

Q: `Cc1csc(Cn2cc(C(=O)N[C@H]3CCCC[C@@H]3O)c3nccc(Cl)c32)n1` [Example 74, 7-Chloro-N-((1S,2S)-2-hydroxycyclohexyl)-1-((4-methylthiazol-2-yl)methyl)-1H-pyrrolo[3,2-b]pyridine-3-carboxamide] was tested. Which “pEC50 for positive allosteric modulation” value did it give?
A: 6.7

Q: How did the “pEC50 for positive allosteric modulation” value turn out when `Cc1cc(Cn2cc(C(=O)N[C@H]3CCCC[C@@H]3O)c3ncccc32)ccn1` [Example 76, N-((1S,2S)-2-Hydroxycyclohexyl)-1-((2-methylpyridin-4-yl)methyl)-1H-pyrrolo[3,2-b]pyridine-3-carboxamide] was run?
A: 6.4

Q: How did the “pEC50 for positive allosteric modulation” value turn out when `Cc1ccnc2c(C(=O)N[C@H]3CCCC[C@@H]3O)cn(Cc3ccc(Cl)nc3)c12` [Example 59, 1-((6-Chloropyridin-3-yl)methyl)-N-((1S,2S)-2-hydroxycyclohexyl)-7-methyl-1H-pyrrolo[3,2-b]pyridine-3-carboxamide] was run?
A: 7.4

Q: Which “pEC50 for positive allosteric modulation” value does the source give for `O=C(N[C@@H]1CCCNC1)c1cn(Cc2ccc(-n3cccn3)cc2)c2cccnc12` [Example 53, (R)-1-(4-(1H-Pyrazol-1-yl)benzyl)-N-(piperidin-3-yl)-1H-pyrrolo[3,2-b]pyridine-3-carboxamide] here?
A: 6.2

Q: How did the “pEC50 for positive allosteric modulation” value turn out when `Cc1ccnc2c(C(=O)N[C@H]3CCCC[C@@H]3O)cn(Cc3ccc(Cl)cc3)c12` [Example 60, 1-(4-Chlorobenzyl)-N-((1S,2S)-2-hydroxycyclohexyl)-7-methyl-1H-pyrrolo[3,2-b]pyridine-3-carboxamide] was run?
A: 7.8

Q: With `Cn1cc(Cn2cc(C(=O)N[C@H]3CCCC[C@@H]3O)c3nccc(Cl)c32)cn1` [Example 72, 7-Chloro-N-((1S,2S)-2-hydroxycyclohexyl)-1-((1-methyl-1H-pyrazol-4-yl)methyl)-1H-pyrrolo[3,2-b]pyridine-3-carboxamide] as the compound, how does the “pEC50 for positive allosteric modulation” value read?
A: 7.8

Q: For `Cc1ccc(Cn2cc(C(=O)N[C@H]3CCCC[C@@H]3O)c3nccc(C)c32)nc1` [Example 64, N-((1S,2S)-2-Hydroxycyclohexyl)-7-methyl-1-((5-methylpyridin-2-yl)methyl)-1H-pyrrolo[3,2-b]pyridine-3-carboxamide], which “pEC50 for positive allosteric modulation” value is on record?
A: 7.2

Q: For `COc1ccc2c(n1)c(C(=O)N[C@H]1CCCC[C@@H]1O)cn2Cc1ccc(F)cc1` [Example 38, 1-(4-Fluorobenzyl)-N-((1S,2S)-2-hydroxycyclohexyl)-5-methoxy-1H-pyrrolo[3,2-b]pyridine-3-carboxamide], which “pEC50 for positive allosteric modulation” value is on record?
A: 5.8

Q: `Cc1cc(-c2ccc(Cn3cc(C(=O)N[C@H]4CCCC[C@@H]4O)c4ncccc43)c(F)c2)ccn1` [Example 45, 1-(2-Fluoro-4-(2-methylpyridin-4-yl)benzyl)-N-((1S,2S)-2-hydroxycyclohexyl)-1H-pyrrolo[3,2-b]pyridine-3-carboxamide] was tested. Which “pEC50 for positive allosteric modulation” value did it give?
A: 7.5
